From patent US20110229415A1, “SEMI-SYNTHETIC ANTIBODIES AS RECOGNITION ELEMENTS” (priority 2007, published 2011)

Assays:
Assay type in all cases: binding
[1] = system: Mouse anti-Human IL-6 monoclonal antibody; assay: Selecting the photoaffinity probe: photolabeling of antibody with radioactive nucleotide probes, SDS PAGE/autoradiography; details: IL-6 antibody, 300 μM of each probe, pH 4.0
Experimental: Selecting the photoaffinity probe. Two radioactive nucleotide probes, [γ-^32P]8-N3ATP and [γ-^32P]2-N3ATP were tested towards their reactivity with Mouse anti-Human IL-6 monoclonal antibody. For the labeling procedure 8 μg antibody was incubated with 300 μM of each probe in two different tubes in a final volume of 62 μl for 10 min on ice. The buffer used was 100 mM BTP at pH 4.0. After 10 min incubation the two tubes were photolyzed with a hand held UV lamp at 254 nm for 2 min and the reaction mixture was agitated in between to prevent local heating. The reaction was quenched by adding 12 μl of loading dye, PSM (5×) and heating it in a water bath for 5 min. The reaction products were then analyzed by SDS PAGE. ^32P incorporation was detected by autoradiography.

mAb against Osteonectin = assay: Labeling of mAb against Osteonectin with radioactive probes
Experimental: 2N3ATP versus [γ^32P] 8N3ATP. Lanes A and D have […] have 10 μL, and C and F have 15 μL of the labeled antibody. [γ^32P] 2N3ATP labels the antibody better than [γ^32P] 8N3ATP.

[2] = molecular target: mouse anti-human IL-6 antibody; assay: Determination of KD by competitive labeling with 2-N3ATP [γ 32P] and 2-N3ATP-fluorophore; details: competition with 30 μM 2-N3ATP [γ 32P], 2 μg antibody, photolysis; read-out: apparent KD
Experimental: Determination of KD of the monoclonal antibody for 2-N3ATP-fluorophore. Competitive labeling of the mouse anti-human IL-6 antibody with 2-N3ATP [γ ^32P] and 2-N3ATP-fluorophore was done. 30 μM 2-N3ATP [γ ^32P] and 2 μg of the antibody was added to each 10 μM, 20 μM, 40 μM, 60 μM, 80 μM, 100 μM and 120 μM of 2-N3ATP-fluorophore tube and incubated for 20 min on ice. The tubes were then photolyzed for 1 min 15 s. The reaction was quenched by adding 5 μl of 0.25 mg/ml cysteine and analyzed by SDS/PAGE and autoradiography.

[3] = system: Mouse anti-Human IL-6 monoclonal antibody; assay: Saturation of labeling of antibody with photoreactive probe; details: 2 μg antibody, increasing probe concentrations, photolysis at 254 nm
Experimental: Saturation of labeling. 2 μg of Mouse anti-Human IL-6 monoclonal antibody was incubated with increasing concentrations of [γ-^32P]2-N3ATP for 20 min on ice and photolyzed with a hand held lamp at 254 nm for 1 min 15 sec. The reaction was quenched by adding 5 μl of 0.25 mg/ml cysteine and analyzed by SDS/PAGE and autoradiography.

Row | Compound | labeling of the antibody, compared with the 8-azido probe [1] | labeling of the antibody, compared with the 8-azido probe (mAb against Osteonectin) | Kd [2] [µM] | saturation of photolabeling (probe concentration) [3]
1 | [N-]=[N+]=Nc1nc(N)c2ncn([C@@H]3O[C@H](COP(=O)(O)OP(=O)(O)OP(=O)(O)O)[C@@H](O)[C@H]3O)c2n1 [2-N3ATP, 2-azido ATP] | greater efficiency as compared to 8-N3ATP | greater efficiency as compared to 8-azido ATP | – | –
2 | 2-N3ATP-Alexa Fluor 594 cadaverine | – | – | ~17 | –
3 | [N-]=[N+]=Nc1nc(N)c2ncn([C@@H]3O[C@H](COP(=O)(O)OP(=O)(O)O[32P](=O)(O)O)[C@@H](O)[C@H]3O)c2n1 [[γ-^32P]-2-N3ATP] | better than [γ-^32P]-8-N3ATP | better than [γ^32P] 8N3ATP | – | ~25 ΞM
